This note sets out measurements from ChEMBL document CHEMBL1156786, “Conformationally constrained mimetics of laminin peptide YIGSR as precursors for antimetastatic disintegrins” (J Med Chem, 2009).

Where a SMILES comes first, the peptide text is derived from it.

What all share (assay type): cell-based
Test [1] concerns the target Small ribosomal subunit protein uS2 (Homo sapiens) (UniProt P08865). Kind of test: Binding affinity to LAMR1 in human HT1080 cells assessed as maximal cell attachment to compound coated plates after 3 hrs by hemocytometer. The conditions noted are these: HT-1080.
Test [2] shares this target. As to the kind of experiment: Binding affinity to LAMR1 in human HeLa cells assessed as maximal cell attachment to compound coated plates after 3 hrs by hemocytometer.
Test [3] deals with Small ribosomal subunit protein uS2 (Mus musculus) (UniProt P14206). As to the kind of experiment: Binding affinity to LAMR1 in mouse B16-F10 cells assessed as maximal cell attachment to compound coated plates after 3 hrs by hemocytometer.
Test [4] concerns the target Small ribosomal subunit protein uS2 (Homo sapiens) (UniProt P08865). Kind of test: Binding affinity to LAMR1 in human HT1080 cells assessed as maximal cell attachment to compound coated plates at 0.2 ug/well after 3 hrs by hemocytometer. The conditions noted are these: HT-1080.
Test [5] has the same target. As to the kind of experiment: Binding affinity to LAMR1 in human HT1080 cells assessed as maximal cell attachment to compound coated plates at 20 ug/well after 3 hrs by hemocytometer. The conditions noted are these: HT-1080.

Turning to `CC[C@H](C)[C@@H]1NC(=O)[C@H](Cc2ccc(O)cc2)NC(=O)CNC(=O)[C@@H]2CCCN2C(=O)[C@H](CC(=O)O)NC(=O)[C@H](CCCNC(=N)N)NC(=O)[C@H](CO)NC(=O)[C@@H](CCC(=O)O)NC1=O`, the Activity in test [1] was 62%.
Take `CC[C@H](C)[C@@H]1NC(=O)[C@H](Cc2ccc(O)cc2)NC(=O)CNC(=O)[C@H](CCCNC(=N)N)NC(=O)[C@H](CO)NC(=O)[C@@H](CO)NC1=O`: the Activity was found to be 45% in test [2], 72% in test [1] and 68% in test [3].
On the same counts, the results for `CC[C@H](C)[C@@H]1NC(=O)[C@H](Cc2ccc(O)cc2)NC(=O)CNC(=O)[C@@H]2CCCN2C(=O)[C@H](CC(=O)O)NC(=O)[C@H](CCCNC(=N)N)NC(=O)[C@H](CO)NC(=O)CNC1=O` (cyclo(DPGYIGSR)) are 40%, 67% and 62%.
Take `CC[C@H](C)[C@H](NC(=O)[C@@H](N)Cc1ccc(O)cc1)C(=O)NCC(=O)N[C@@H](CO)C(=O)N[C@@H](CCCNC(=N)N)C(=O)N[C@H](C)C(=O)N[C@H](CCSC)C(=O)O`: the Activity came out at 31% in test [2] and 53% in test [1].
For `CC[C@H](C)[C@@H]1NC(=O)[C@H](Cc2ccc(O)cc2)NC(=O)[C@H](CC(N)=O)NC(=O)[C@H](CCCNC(=N)N)NC(=O)[C@H](CO)NC(=O)[C@@H](CO)NC1=O`, the Activity was determined as 46% in test [2]; 20% in test [4]; 81% in test [1]; 40% in test [5]; 45% in test [3].
`CC[C@H](C)[C@@H]1NC(=O)[C@H](Cc2ccc(O)cc2)NC(=O)[C@H](CC(N)=O)NC(=O)[C@H](CCCNC(=N)N)NC(=O)[C@H](CO)NC(=O)[C@@H](CCCCN)NC1=O`: the Activity turned out to be 29% in test [2] and 64% in test [1].
On to `CC[C@H](C)[C@@H]1NC(=O)[C@H](Cc2ccc(O)cc2)NC(=O)[C@H](CC(N)=O)NC(=O)[C@H](CCCNC(=N)N)NC(=O)[C@H](CO)NC(=O)[C@@H](CCC(=O)O)NC1=O`, for which the Activity amounted to 43% in test [2], 76% in test [1] and 58% in test [3].
Take `CC[C@H](C)[C@@H]1NC(=O)[C@H](Cc2ccc(O)cc2)NC(=O)CNC(=O)[C@@H]2CCCN2C(=O)[C@H](CC(=O)O)NC(=O)[C@H](CCCNC(=N)N)NC(=O)[C@H](CO)NC(=O)[C@@H](CCCCN)NC1=O`: in test [1], the Activity is 45%.
For the compound `CC[C@H](C)[C@@H]1NC(=O)[C@H](Cc2ccc(O)cc2)NC(=O)[C@H](CC(N)=O)NC(=O)[C@H](CCCNC(=N)N)NC(=O)[C@H](CO)NC(=O)CNC1=O` (cyclo(GSRNYI)), the Activity was 32% in test [2] and 56% in test [1].
Turning to `CC[C@H](C)[C@@H]1NC(=O)[C@H](Cc2ccc(O)cc2)NC(=O)[C@H](CC(N)=O)NC(=O)[C@H](CCCNC(=N)N)NC(=O)[C@H](CO)NC(=O)[C@@H]2CCCN2C(=O)[C@H]([C@@H](C)CC)NC(=O)[C@H](Cc2ccc(O)cc2)NC(=O)[C@H](CC(N)=O)NC(=O)[C@H](CCCNC(=N)N)NC(=O)[C@H](CO)NC(=O)[C@@H]2CCCN2C1=O` (cyclo(IPSRNYIPSRNY)), the Activity in test [1] stood at 57%.
Same read-out and setting: the figure for `CC[C@H](C)[C@@H]1NC(=O)[C@H](Cc2ccc(O)cc2)NC(=O)[C@H]2CCCN2C(=O)[C@H](CCCNC(=N)N)NC(=O)[C@H](CO)NC(=O)[C@@H](CO)NC1=O` is 76%.
Still for that read-out and setting: the figure for `CC[C@H](C)[C@@H]1NC(=O)[C@H](Cc2ccc(O)cc2)NC(=O)CNC(=O)[C@@H]2CCCN2C(=O)[C@H](CC(=O)O)NC(=O)[C@H](CCCNC(=N)N)NC(=O)[C@H](CO)NC(=O)[C@@H](CO)NC1=O` is 75%.
Turning to `CC[C@H](C)[C@@H]1NC(=O)[C@H](Cc2ccc(O)cc2)NC(=O)[C@H](CC(N)=O)NC(=O)[C@H](CCCNC(=N)N)NC(=O)[C@H](CO)NC(=O)[C@@H]2CCCN2C1=O` (cyclo(IPSRNY)), the figures for the Activity in test [2] and in test [1] were 32% and 53%, respectively.
On to `CC[C@H](C)[C@@H]1NC(=O)[C@H](Cc2ccc(O)cc2)NC(=O)[C@H](CC(N)=O)NC(=O)[C@H](CCCNC(=N)N)NC(=O)[C@H](CO)NC(=O)[C@@H](CO)NC(=O)[C@H]([C@@H](C)CC)NC(=O)[C@H](Cc2ccc(O)cc2)NC(=O)[C@H](CC(N)=O)NC(=O)[C@H](CCCNC(=N)N)NC(=O)[C@H](CO)NC(=O)[C@@H](CO)NC1=O`, for which, in test [1], the Activity was determined as 48%.
